Non-standard residues stand in square brackets, D forms with d. Residues, ends and D or L forms follow the SMILES beside them.
Assays:
hNMUR1 = target: T1, hNMUR1 (Homo sapiens, UniProt Q9HB89); assay: FLIPR calcium mobilization assay, human NMUR1; assay type: cell-based; design: expressed in transfected cells; host or cells: FLP-In CHO or HEK-293 FLP-In cells (pcDNA5); HEK-293/aeq17 lines (pIRES-puro) were also made; details: functional data, human R1
T1 sequence (Q9HB89 1-426): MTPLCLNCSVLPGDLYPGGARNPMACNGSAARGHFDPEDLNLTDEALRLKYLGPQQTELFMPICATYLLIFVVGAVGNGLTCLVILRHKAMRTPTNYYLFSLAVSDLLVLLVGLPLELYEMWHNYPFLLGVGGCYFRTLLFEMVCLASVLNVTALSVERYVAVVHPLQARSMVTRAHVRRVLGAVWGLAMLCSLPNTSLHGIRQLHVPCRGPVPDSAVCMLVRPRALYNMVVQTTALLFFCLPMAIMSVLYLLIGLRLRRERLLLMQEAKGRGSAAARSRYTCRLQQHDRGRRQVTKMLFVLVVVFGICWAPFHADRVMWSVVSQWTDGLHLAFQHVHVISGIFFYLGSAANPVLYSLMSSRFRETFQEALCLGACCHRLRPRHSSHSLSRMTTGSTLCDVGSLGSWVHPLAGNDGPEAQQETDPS

in vitro = details: human, plasma

## CC(C)C[C@@H](NC(=O)[C@H](Cc1ccccc1)NC(=O)[C@H](Cc1ccc(O)cc1)NC(=O)CNC(=O)[C@H](CCCNC(=N)N)NC(=O)[C@H](CO)NC(=O)[C@H](CCC(N)=O)NC(=O)[C@H](CO)NC(=O)[C@H](C)NC(=O)[C@H](Cc1ccccc1)NC(=O)[C@@H]1CCCN1C(=O)[C@H](CO)NC(=O)[C@H](CCC(N)=O)NC(=O)[C@H](Cc1ccccc1)NC(=O)[C@H](CCC(=O)O)NC(=O)[C@H](CCC(=O)O)NC(=O)[C@H](CC(=O)O)NC(=O)[C@@H](NC(=O)[C@H](CCCNC(=N)N)NC(=O)[C@@H](N)Cc1ccccc1)C(C)C)C(=O)N[C@@H](Cc1c[nH]c2ccccc12)C(=O)N[C@@H](CCCNC(=N)N)C(=O)N1CCC[C@H]1C(=O)N[C@@H](CCCNC(=N)N)C(=O)N[C@@H](CC(N)=O)C(N)=O [Agonist H] (H-FRVDEEFQSPFASQSRGYF[dL]WRPRN-NH2; N-terminus assumed)
hNMUR1
  IC50: 1.25 nM

## H-FRVDEEFQSPFASQSRGYFLFRPRN-NH2 [hNMU-25, reference compound]
In vitro
  half-life at 1 μM: < 16 h
hNMUR1
  IC50: 0.2 nM
